Laboratory results taken from article PMC10759609, “A novel PDPN antagonist peptide CY12-RP2 inhibits melanoma growth via Wnt/β-catenin and modulates the immune cells” (Journal of Experimental & Clinical Cancer Research : CR, 2024).
Peptide text beside a SMILES is read from it.

How the values were obtained:
A375 cells [1] = assay: Annexin V/PI flow cytometry apoptosis, A375; type: cell-based; conditions: 0, 50, 100, 200 μM, 48 h
Experimental: In this study, cell apoptosis was analyzed by flow cytometry using a PI/FITC-Annexin V Apoptosis Detection Kit (4A Biotech, Beijing, China). Briefly, melanoma cells were collected and washed with pre-chilled PBS, then resuspended with Annexin V staining buffer. Afterward, fluorescein isothiocyanate (FITC)-Annexin V and PI were stained for 5 min at RT, and then immediately detected using a Beckman flow cytometer. To investigate immune cell infiltration of the lung and spleen in the pulmonary metastasis mouse model, the surface and nuclear antigen staining were performed following the experimental procedure. Fluorescence-labeled mAb against CD3, CD25, CD49b, GranzymeB, CD11b, CD86, and CD206 were purchased from BioLegend (BioLegend, San Diego, CA), and CD4, CD8, and Foxp3 from Tonbo. […] Finally, the samples were measured using flow cytometry.
Fig. 3 Biopanning of PDPN antagonist peptides. […] B Immunofluorescence staining was performed to quantify the colocalization of CY12-RP2 and PDPN protein in melanoma cell lines (A375, A875). […] D Suppression efficiency of melanoma cells growth by CY12-RP2 was measured by CCK8 assay at various concentrations for 24, 48 or 72 h, respectively. […] G, H The 3D cellular spheres were treated with the set concentrations of CY12-RP2 for 5 days and cell morphology was assessed (G), relative spheroid diameter was measured (H). […]

A375 cellular spheroid = assay: 3D spheroid diameter, A375; type: cell-based; conditions: A375 spheroids; 0, 50, 100, 200 μM, 5 days
Experimental: A375 and A875 cells were collected and suspended in Matrigel (Corning) with a density of 1.0 × 10^7 cells per mL. 3D spheroids were fabricate using cell-processing system that have two pumps. One pump was loaded with Matrigel and another with fluorocarbon oil (3 M NOVEC, HFE-7000). The flow rate of Matrigel was 20 μL/min and the fluorocarbon oil rate was 30 μL/min. The 3D spheroids were incubated at 37 °C with 5% CO2 after printing. Culturing medium was DMEM medium supplemented with 10% FBS, and 100 IU of penicillin and […] streptomycin. The medium was changed every 3 days. Afterward, the 3D spheroids were harvested for drug analysis.
Prepared melanoma cells spheroids were plated in 48-well plates. Following incubation for 3 days, the spheroids were exposed to different concentrations (0, 50, 100 and 200 μM) of CY12-RP2, and changes in spheroid diameter were detected after 5 days of treatment. Additionally, melanoma cell spheroids were treated with various concentrations of CY12-RP2 as described previously, and after 72 h, the spheroids were stained for immunofluorescence with caspase 3 primary antibody. The specific experimental procedures refer to the following immunofluorescence analysis. Additionally, we co-cultured peptide-stimulated PBMC with spheroids to determine the tumor-killing ability of activated PBMC.

A875 cells = assay: Colony formation, A875; type: cell-based
A375 cells [2] = assay: Transwell matrigel invasion, A375; type: cell-based; conditions: transwell matrigel, 0, 5, 25 μM, 48 h
Experimental: For invasion assay, matrigel (Corning, New York, USA) was coated on the upper surface of the upper chamber. The upper chamber was filled with DMEM medium containing 2% FBS, while the lower chamber contained a medium supplemented with 20% FBS. In brief, melanoma cells (A375 GFP, A875 GFP, A375 PDPN^−/−, and A875 PDPN^+/+ cells) were seeded in the upper chamber of the transwell plate (Corning, New York, USA) at about 5 × 10^4 cells/well with the medium as described above. For peptide functionality experiments, A375 and A875 cells were seeded in the upper chamber of the transwell plate at a density of 5 × 10^4 cells/well with various peptide concentrations (0 μM, 5 μM, 25 μM). Transwell inserts were fixed using 4% paraformaldehyde after 48 h cell invasion, and crystalline violet was used for staining. The quantities of invading cells were quantified using ImageJ software (NIH).

[3] = test system: cytokines in mouse plasma; assay: Plasma cytokines in lung metastasis model (ELISA); type: in vivo, BALB/c mice; conditions: lung metastases model, vs control
Experimental: The levels of major inflammatory cytokines, including TNF-α, IL-1β, IL-2, TGF-β, IFN-γ, and IL-10, were measured using an ELISA kit (Shenzhen Ziker Biological Technology, Shenzen, China). Briefly, culture supernatants of cells and serum of pulmonary metastasis mouse model were respectively collected and added to an antibody pre-coated 96-well plates, and then followed up according to the manufacturer's instructions.
For pulmonary metastasis assays, 6- to 8-week-old female BALB/c mice were administered with 5 × 10^5 B16F10-Luc cells via tail vein to establish an experimental pulmonary metastasis model of melanoma. CY12-RP2 was administered to the mice intravenously at high and low doses (25 mg/kg and 100 mg/kg) every two days, and the mice were sacrificed after 15 days of treatment. Pulmonary metastases were evaluated using bioluminescence imaging on the 2nd, 5th, 10th, 15th and 20th day after B16F10-Luc cells injection. Subsequently, the BALB/c mice were sacrificed, and the organs including the heart, liver, spleen, lung, and kidney were collected and imaged for evaluation of micrometastases. The xenografts and organs were kept in a 4% paraformaldehyde solution for subsequent histological assays.

CC(C)C[C@H](NC(=O)[C@H](Cc1ccc(O)cc1)NC(=O)[C@@H](N)[C@@H](C)O)C(=O)N[C@@H](CS)C(=O)N[C@H](C(=O)N[C@@H](C)C(=O)N[C@@H](CS)C(=O)N[C@@H](CC(=O)O)C(=O)N[C@@H](Cc1ccc(O)cc1)C(=O)N[C@H](C(=O)N[C@@H](Cc1c[nH]cn1)C(=O)N[C@@H](Cc1c[nH]cn1)C(=O)O)[C@@H](C)O)[C@@H](C)O [CY12-RP2] (H-TYLCTACDYTHH-OH; N-terminus and C-terminus assumed)
apoptosis rate (A375 cells [1]): significantly up-regulated by CY12-RP2 in a dose-dependent manner
relative spheroid diameter (A375 cellular spheroid): significantly diminished with increasing CY12-RP2 concentration
colony formation (A875 cells): only having inhibitory effects on A875 cells at high concentrations
invasion (A375 cells [2]): significantly suppressed the invasion of A375 cells in a dose-dependent manner
plasma IFN-γ [3]: significantly elevated
plasma IL-1β [3]: significantly elevated
plasma IL-2 [3]: reduced
plasma IL-10 [3]: reduced
plasma TGF-β [3]: reduced
plasma TNF-α [3]: significantly elevated
